{"source": "PubChem BioAssay (NCI)", "assay_in_all_cases": "inhibition of tumour cell growth, NCI panel, 48 h", "key": {"SNB-75 CNS": {"system": "SNB-75 CNS"}, "NCI-H23 lung": {"system": "NCI-H23 lung"}, "NCI-H226 lung": {"system": "NCI-H226 lung"}, "OVCAR-4 ovarian": {"system": "OVCAR-4 ovarian"}, "UACC-257 melanoma": {"system": "UACC-257 melanoma"}, "KM12 colon": {"system": "KM12 colon"}, "OVCAR-5 ovarian": {"system": "OVCAR-5 ovarian"}, "OVCAR-3 ovarian": {"system": "OVCAR-3 ovarian"}, "A498 renal": {"system": "A498 renal"}, "COLO 205 colon": {"system": "COLO 205 colon"}, "SW-620 colon": {"system": "SW-620 colon"}, "UO-31 renal": {"system": "UO-31 renal"}, "XF 498 CNS": {"system": "XF 498 CNS"}, "HOP-18 NSCLC": {"system": "HOP-18 NSCLC"}, "KM20L2 colon": {"system": "KM20L2 colon"}, "SNB-78 CNS": {"system": "SNB-78 CNS"}, "OVCAR-8 ovarian": {"system": "OVCAR-8 ovarian"}, "HOP-62 NSCLC": {"system": "HOP-62 NSCLC"}, "SN12C renal": {"system": "SN12C renal"}, "RXF-631 renal": {"system": "RXF-631 renal"}, "K-562 leukemia": {"system": "K-562 leukemia"}, "SR leukemia": {"system": "SR leukemia"}, "SF-268 CNS": {"system": "SF-268 CNS"}, "U251 CNS": {"system": "U251 CNS"}, "786-0 renal": {"system": "786-0 renal"}, "HCC-2998 colon": {"system": "HCC-2998 colon"}, "ACHN renal": {"system": "ACHN renal"}, "SF-539 CNS": {"system": "SF-539 CNS"}, "UACC-62 melanoma": {"system": "UACC-62 melanoma"}, "MOLT-4 leukemia": {"system": "MOLT-4 leukemia"}, "RXF 393 renal": {"system": "RXF 393 renal"}, "SF-295 CNS": {"system": "SF-295 CNS"}, "A549 NSCLC": {"system": "A549 NSCLC"}, "IGROV1 ovarian": {"system": "IGROV1 ovarian"}, "EKVX NSCLC": {"system": "EKVX NSCLC"}, "HOP-92 NSCLC": {"system": "HOP-92 NSCLC"}, "DMS 273 small cell lung": {"system": "DMS 273 small cell lung"}, "DMS 114 small cell lung": {"system": "DMS 114 small cell lung"}, "NCI-H460 lung": {"system": "NCI-H460 lung"}, "NCI-H522 lung": {"system": "NCI-H522 lung"}, "SK-MEL-2 melanoma": {"system": "SK-MEL-2 melanoma"}, "SK-MEL-5 melanoma": {"system": "SK-MEL-5 melanoma"}, "SK-MEL-28 melanoma": {"system": "SK-MEL-28 melanoma"}, "HCT-116 colon": {"system": "HCT-116 colon"}, "SNB-19 CNS": {"system": "SNB-19 CNS"}, "CAKI-1 renal": {"system": "CAKI-1 renal"}, "TK-10 renal": {"system": "TK-10 renal"}, "HCT-15 colon": {"system": "HCT-15 colon"}, "LXFL 529 NSCLC": {"system": "LXFL 529 NSCLC"}, "SK-OV-3 ovarian": {"system": "SK-OV-3 ovarian"}, "MALME-3M melanoma": {"system": "MALME-3M melanoma"}, "LOX IMVI melanoma": {"system": "LOX IMVI melanoma"}, "HT29 colon": {"system": "HT29 colon"}, "DLD-1 colon": {"system": "DLD-1 colon"}, "CCRF-CEM leukemia": {"system": "CCRF-CEM leukemia"}, "M19-MEL melanoma": {"system": "M19-MEL melanoma"}, "M14 melanoma": {"system": "M14 melanoma"}, "RPMI-8226 leukemia": {"system": "RPMI-8226 leukemia"}}, "note": "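Five compound concentrations were applied to cells in 96-well plates for 48 hours; endpoints were derived by simple linear interpolation of the resulting dose-response curve. TGI marks complete inhibition of growth.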"}
{"smiles": "CCCCCC/C=C1\\CCC(CN2CCCC2)C1=O", "note": "(stereo not drawn)", "values": [{"measurement": "TGI", "setting": "SNB-75 CNS", "result": 38.3, "unit": "µM"}, {"measurement": "TGI", "setting": "NCI-H23 lung", "result": 33.8, "unit": "µM"}, {"measurement": "TGI", "setting": "NCI-H226 lung", "result": 34.3, "unit": "µM"}, {"measurement": "TGI", "setting": "OVCAR-4 ovarian", "result": 49.1, "unit": "µM"}, {"measurement": "TGI", "setting": "UACC-257 melanoma", "result": 32.7, "unit": "µM"}, {"measurement": "TGI", "setting": "KM12 colon", "result": 13.3, "unit": "µM"}, {"measurement": "TGI", "setting": "OVCAR-5 ovarian", "result": 32.3, "unit": "µM"}, {"measurement": "TGI", "setting": "OVCAR-3 ovarian", "result": 27.3, "unit": "µM"}, {"measurement": "TGI", "setting": "A498 renal", "result": 38.4, "unit": "µM"}, {"measurement": "TGI", "setting": "COLO 205 colon", "result": 36.3, "unit": "µM"}, {"measurement": "TGI", "setting": "SW-620 colon", "result": "> 59.4", "unit": "µM"}, {"measurement": "TGI", "setting": "UO-31 renal", "result": 33, "unit": "µM"}, {"measurement": "TGI", "setting": "XF 498 CNS", "result": 31.4, "unit": "µM"}, {"measurement": "TGI", "setting": "HOP-18 NSCLC", "result": 32.9, "unit": "µM"}, {"measurement": "TGI", "setting": "KM20L2 colon", "result": 41.3, "unit": "µM"}, {"measurement": "TGI", "setting": "SNB-78 CNS", "result": 60.2, "unit": "µM"}, {"measurement": "TGI", "setting": "OVCAR-8 ovarian", "result": 39.2, "unit": "µM"}, {"measurement": "TGI", "setting": "HOP-62 NSCLC", "result": 34.2, "unit": "µM"}, {"measurement": "TGI", "setting": "SN12C renal", "result": 27, "unit": "µM"}, {"measurement": "TGI", "setting": "RXF-631 renal", "result": 42.2, "unit": "µM"}, {"measurement": "TGI", "setting": "K-562 leukemia", "result": 12.6, "unit": "µM"}, {"measurement": "TGI", "setting": "SR leukemia", "result": "> 22.4", "unit": "µM"}, {"measurement": "TGI", "setting": "SF-268 CNS", "result": 38.5, "unit": "µM"}, {"measurement": "TGI", "setting": "U251 CNS", "result": 30, "unit": "µM"}, {"measurement": "TGI", "setting": "786-0 renal", "result": 6.43, "unit": "µM"}, {"measurement": "TGI", "setting": "HCC-2998 colon", "result": 31.6, "unit": "µM"}, {"measurement": "TGI", "setting": "ACHN renal", "result": 32.3, "unit": "µM"}, {"measurement": "TGI", "setting": "SF-539 CNS", "result": 34.1, "unit": "µM"}, {"measurement": "TGI", "setting": "UACC-62 melanoma", "result": 35.9, "unit": "µM"}, {"measurement": "TGI", "setting": "MOLT-4 leukemia", "result": "> 87", "unit": "µM"}, {"measurement": "TGI", "setting": "RXF 393 renal", "result": 33.5, "unit": "µM"}, {"measurement": "TGI", "setting": "SF-295 CNS", "result": 34.1, "unit": "µM"}, {"measurement": "TGI", "setting": "A549 NSCLC", "result": 37, "unit": "µM"}, {"measurement": "TGI", "setting": "IGROV1 ovarian", "result": 39.6, "unit": "µM"}, {"measurement": "TGI", "setting": "EKVX NSCLC", "result": 34.2, "unit": "µM"}, {"measurement": "TGI", "setting": "HOP-92 NSCLC", "result": 32.4, "unit": "µM"}, {"measurement": "TGI", "setting": "DMS 273 small cell lung", "result": 25.5, "unit": "µM"}, {"measurement": "TGI", "setting": "DMS 114 small cell lung", "result": 29.4, "unit": "µM"}, {"measurement": "TGI", "setting": "NCI-H460 lung", "result": "> 62.1", "unit": "µM"}, {"measurement": "TGI", "setting": "NCI-H522 lung", "result": 3.29, "unit": "µM"}, {"measurement": "TGI", "setting": "SK-MEL-2 melanoma", "result": 30.5, "unit": "µM"}, {"measurement": "TGI", "setting": "SK-MEL-5 melanoma", "result": 32.8, "unit": "µM"}, {"measurement": "TGI", "setting": "SK-MEL-28 melanoma", "result": 33.8, "unit": "µM"}, {"measurement": "TGI", "setting": "HCT-116 colon", "result": 25, "unit": "µM"}, {"measurement": "TGI", "setting": "SNB-19 CNS", "result": "> 52.9", "unit": "µM"}, {"measurement": "TGI", "setting": "CAKI-1 renal", "result": "> 53.5", "unit": "µM"}, {"measurement": "TGI", "setting": "TK-10 renal", "result": 17.4, "unit": "µM"}, {"measurement": "TGI", "setting": "HCT-15 colon", "result": 22.8, "unit": "µM"}, {"measurement": "TGI", "setting": "LXFL 529 NSCLC", "result": 11.4, "unit": "µM"}, {"measurement": "TGI", "setting": "SK-OV-3 ovarian", "result": 33, "unit": "µM"}, {"measurement": "TGI", "setting": "MALME-3M melanoma", "result": 34.6, "unit": "µM"}, {"measurement": "TGI", "setting": "LOX IMVI melanoma", "result": 22.4, "unit": "µM"}, {"measurement": "TGI", "setting": "HT29 colon", "result": 34.2, "unit": "µM"}, {"measurement": "TGI", "setting": "DLD-1 colon", "result": 18, "unit": "µM"}, {"measurement": "TGI", "setting": "CCRF-CEM leukemia", "result": 20.9, "unit": "µM"}, {"measurement": "TGI", "setting": "M19-MEL melanoma", "result": 25.6, "unit": "µM"}, {"measurement": "TGI", "setting": "M14 melanoma", "result": 33.6, "unit": "µM"}, {"measurement": "TGI", "setting": "RPMI-8226 leukemia", "result": 5.56, "unit": "µM"}]}
